ChEMBL document CHEMBL3097995, “NAD-based inhibitors with anticancer potential” (Bioorg Med Chem Lett, 2014)

How the values were obtained:
[1] = molecular target: Inosine-5'-monophosphate dehydrogenase 1 (Homo sapiens, UniProt P20839); assay: Inhibition of IMPDH1 (unknown origin)
K562 = assay: Antiproliferative activity against human K562 cells; format: functional, cell-based
DU-145 = assay: Antiproliferative activity against human DU145 cells; format: functional, cell-based
[2] = molecular target: Inosine-5'-monophosphate dehydrogenase 2 (Homo sapiens, UniProt P12268); assay: Inhibition of IMPDH2 (unknown origin)
HL-60 = assay: Antiproliferative activity against human HL60 cells; format: functional, cell-based
PC-3 = assay: Antiproliferative activity against human PC3 cells; format: functional, cell-based
HeLa = assay: Antiproliferative activity against human HeLa cells; format: functional, cell-based
HT-29 = assay: Antiproliferative activity against human HT-29 cells; format: functional, cell-based

Sequence of Inosine-5'-monophosphate dehydrogenase 1 (P20839 whole entry): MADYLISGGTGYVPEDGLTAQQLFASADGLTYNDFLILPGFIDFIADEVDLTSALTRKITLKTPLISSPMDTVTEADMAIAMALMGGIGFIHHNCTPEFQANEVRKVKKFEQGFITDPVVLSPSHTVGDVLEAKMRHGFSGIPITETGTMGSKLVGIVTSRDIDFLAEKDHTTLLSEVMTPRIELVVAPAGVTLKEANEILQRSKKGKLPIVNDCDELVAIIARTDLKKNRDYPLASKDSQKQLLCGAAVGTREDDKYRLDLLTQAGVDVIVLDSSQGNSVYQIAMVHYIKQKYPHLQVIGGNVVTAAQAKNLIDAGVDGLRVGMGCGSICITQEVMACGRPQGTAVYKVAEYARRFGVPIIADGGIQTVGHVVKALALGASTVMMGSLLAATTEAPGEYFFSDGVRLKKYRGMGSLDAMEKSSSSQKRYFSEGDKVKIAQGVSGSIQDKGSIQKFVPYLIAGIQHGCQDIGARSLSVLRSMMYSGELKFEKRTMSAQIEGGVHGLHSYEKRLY

Structure (SMILES) | Ki [1] | IC50 (K562) | IC50 (DU-145) | Ki [2] | IC50 (HL-60) | IC50 (PC-3) | IC50 (HeLa) | IC50 (HT-29)
COC(=O)[C@H](CCSC)NC(=O)CC/C(C)=C/Cc1c(O)c2c(c(C)c1OC)COC2=O | 2.2 µM | 3 µM | 8.7 µM | 0.147 µM | 4.5 µM |  |  | 
COC(=O)[C@@H](NC(=O)CC/C(C)=C/Cc1c(O)c2c(c(C)c1OC)COC2=O)C(C)C | 3.77 µM | 8.3 µM | 39 µM | 0.967 µM | 31 µM | > 100 µM |  | 
COC(=O)[C@H](NC(=O)CC/C(C)=C/Cc1c(O)c2c(c(C)c1OC)COC2=O)C(C)C | 7.72 µM | 29 µM | 16 µM | 1.96 µM | 36 µM | 61 µM |  | 
COC(=O)[C@@H](Cc1c[nH]c2ccccc12)NC(=O)CC/C(C)=C/Cc1c(O)c2c(c(C)c1OC)COC2=O | 0.144 µM | 14 µM | > 100 µM | 0.438 µM | 35 µM | > 100 µM |  | 
COc1c(C)c2c(c(O)c1C/C=C(\C)CCC(=O)N[C@H](Cc1c[nH]c3ccccc13)C(=O)NC[C@H]1O[C@@H](n3cnc4c(N)ncnc43)[C@H](O)[C@@H]1O)C(=O)OC2 | 0.056 µM | > 100 µM | > 100 µM | 0.04 µM | > 100 µM | > 100 µM |  | 
COc1c(C)c2c(c(O)c1C/C=C(\C)CCC(=O)N[C@H](Cc1c[nH]c3ccccc13)C(=O)O)C(=O)OC2 | 0.032 µM | > 100 µM | > 100 µM | 0.174 µM | > 100 µM | > 100 µM |  | 
COC(=O)[C@@H](Cc1ccccc1)NC(=O)CC/C(C)=C/Cc1c(O)c2c(c(C)c1OC)COC2=O | 5.56 µM | 29 µM | 10 µM | 2.4 µM | 41 µM | 70 µM |  | 
COC(=O)CNC(=O)CC/C(C)=C/Cc1c(O)c2c(c(C)c1OC)COC2=O | 0.522 µM | 16 µM | 3.1 µM | 0.487 µM | 22 µM | 79 µM |  | 
COc1c(C)c2c(c(O)c1CCOP(=O)(O)CP(=O)(O)OC[C@H]1O[C@@H](n3c(Br)nc4c(N)ncnc43)[C@H](O)[C@@H]1O)C(=O)OC2 | 0.039 µM | 48 µM |  | 0.186 µM |  |  | > 100 µM | > 100 µM
COc1c(C)c2c(c(O)c1C/C=C(\C)CCC(=O)N[C@@H](CCSC)C(=O)O)C(=O)OC2 | 5.13 µM | > 100 µM | > 100 µM | 0.134 µM | > 100 µM | > 100 µM |  | 
COc1c(C)c2c(c(O)c1C/C=C(\C)CCC(=O)N[C@@H](Cc1c[nH]c3ccccc13)C(=O)NC[C@H]1O[C@@H](n3cnc4c(N)ncnc43)[C@H](O)[C@@H]1O)C(=O)OC2 | 0.164 µM | > 100 µM | > 100 µM | 0.188 µM | > 100 µM | > 100 µM |  | 
COc1c(C)c2c(c(O)c1CCOP(=O)(O)CP(=O)(O)OC[C@H]1O[C@@H](n3cnc4c(N)nc(C(F)(F)F)nc43)[C@H](O)[C@@H]1O)C(=O)OC2 | 0.013 µM | 1 µM |  | 0.015 µM |  |  | 4.5 µM | 8.7 µM
COc1c(C)c2c(c(O)c1C/C=C(\C)CCC(=O)N[C@H](Cc1ccccc1)C(=O)O)C(=O)OC2 | 4.31 µM | > 100 µM | 10 µM | 2.67 µM | > 100 µM | > 100 µM |  | 
COc1c(C)c2c(c(O)c1CCOP(=O)(O)CP(=O)(O)OC[C@H]1O[C@@H](n3cnc4c(N)nc(COCc5ccccc5)nc43)[C@H](O)[C@@H]1O)C(=O)OC2 | 0.07 µM | 3 µM |  | 0.044 µM |  |  | 11 µM | > 100 µM
COc1c(C)c2c(c(O)c1CCOP(=O)(O)CP(=O)(O)OC[C@H]1O[C@@H](n3cnc4c(N)nc(-c5cccs5)nc43)[C@H](O)[C@@H]1O)C(=O)OC2 | 0.082 µM | 1.5 µM |  | 0.056 µM |  |  | 12 µM | 46 µM
COC(=O)[C@H](Cc1c[nH]c2ccccc12)NC(=O)CC/C(C)=C/Cc1c(O)c2c(c(C)c1OC)COC2=O | 0.733 µM | 6.2 µM | 9.7 µM | 0.233 µM | 8.3 µM | > 100 µM |  | 
COc1c(C)c2c(c(O)c1C/C=C(\C)CCC(=O)N[C@@H](Cc1ccccc1)C(=O)NC[C@H]1O[C@@H](n3cnc4c(N)ncnc43)[C@H](O)[C@@H]1O)C(=O)OC2 | 0.259 µM | > 100 µM | > 100 µM | 0.188 µM | > 100 µM | > 100 µM |  | 
COc1c(C)c2c(c(O)c1C/C=C(\C)CCC(=O)N[C@H](C(=O)O)C(C)C)C(=O)OC2 | 0.132 µM | 55 µM | > 100 µM | 0.175 µM | 72 µM | > 100 µM |  | 
COc1c(C)c2c(c(O)c1C/C=C(\C)CCC(=O)N[C@H](Cc1ccccc1)C(=O)NC[C@H]1O[C@@H](n3cnc4c(N)ncnc43)[C@H](O)[C@@H]1O)C(=O)OC2 | 0.038 µM | > 100 µM | > 100 µM | 0.0126 µM | > 100 µM | > 100 µM |  | 
